Measurements: ChEMBL document CHEMBL3045041, “Synthesis of novel aryl(4-substituted pyridin-3-yl)methyl carbamates and their herbicidal activity” (J Pestic Sci, 2012)

Legend:
[1] = test system: Schoenoplectiella juncoides; assay: Herbicidal activity against Schoenoplectiella juncoides under greenhouse condition compound treated at 0.5 leaf stage measured after 14 to 20 days; assay type: functional
Echinochloa oryzicola [2] = assay: Herbicidal activity against Echinochloa oryzicola under greenhouse condition compound treated at 2.5 leaf stage measured after 14 to 20 days; assay type: functional
Oryza sativa = assay: Phytotoxicity against Oryza sativa cv. Kinuhikari (rice) planted at 3 cm depth measured after 20 to 25 days; assay type: organism-based; settings: in vivo
Echinochloa oryzicola [3] = assay: Herbicidal activity against Echinochloa oryzicola under greenhouse condition compound treated at emergence stage measured after 14 to 20 days; assay type: functional

CN(C)C(=O)OC(c1cnccc1C#N)c1cccc2ccccc12 (centres undefined)
ED80 [1]: 250 gAi/ha
ED80 (Echinochloa oryzicola [2]): 250 gAi/ha
ED20 (Oryza sativa): > 1000 gAi/ha
ED80 (Echinochloa oryzicola [3]): 63 gAi/ha

COc1ccncc1C(OC(=O)N(C)C)c1cccc2ccccc12 (centres undefined)
ED80 [1]: >1000 gAi/ha
ED80 (Echinochloa oryzicola [2]): >1000 gAi/ha
ED20 (Oryza sativa): > 2000 gAi/ha
ED80 (Echinochloa oryzicola [3]): >1000 gAi/ha

Cc1ccncc1C(OC(=O)N(C)C)c1cccc2ccccc12 (centres undefined)
ED80 [1]: >1000 gAi/ha
ED20 (Oryza sativa): 2000 gAi/ha
ED80 (Echinochloa oryzicola [3]): 500 gAi/ha

CN(C)C(=O)OC(c1cnccc1Cl)c1cccc2ccccc12 (centres undefined)
ED80 [1]: 63 gAi/ha
ED80 (Echinochloa oryzicola [2]): >500 gAi/ha
ED20 (Oryza sativa): 1000 gAi/ha
ED80 (Echinochloa oryzicola [3]): 63 gAi/ha

CN(C)C(=O)OC(c1cnccc1Br)c1cccc2ccccc12 (centres undefined)
ED80 [1]: 250 gAi/ha
ED80 (Echinochloa oryzicola [2]): 250 gAi/ha
ED20 (Oryza sativa): 2000 gAi/ha
ED80 (Echinochloa oryzicola [3]): 31 gAi/ha

O=C(OC(c1cnccc1C(F)(F)F)c1cccc2ccccc12)n1ccnc1 (centres undefined)
ED80 [1]: >1000 gAi/ha
ED80 (Echinochloa oryzicola [3]): >500 gAi/ha

CCN(CC)C(=O)OC(c1cnccc1C(F)(F)F)c1cccc2ccccc12 (centres undefined)
ED80 [1]: 1000 gAi/ha
ED80 (Echinochloa oryzicola [2]): 250 gAi/ha
ED20 (Oryza sativa): > 2000 gAi/ha
ED80 (Echinochloa oryzicola [3]): 31 gAi/ha

CNC(=O)OC(c1cnccc1C(F)(F)F)c1cccc2ccccc12 (centres undefined)
ED80 [1]: 500 gAi/ha
ED80 (Echinochloa oryzicola [2]): 250 gAi/ha
ED20 (Oryza sativa): 2000 gAi/ha
ED80 (Echinochloa oryzicola [3]): 63 gAi/ha
